# Patent publication US10080366B2, “Agent for increasing sugar content in fruit” (RIKEN, priority 2012, dated 2018)
# Like-named read-outs stand apart in the source and are kept apart here.
# Key:
# Tomato = details: dilution ratio 100 (10 g/L); 6 days after treatment
# [1] = test system: fruit of grape (variety: Red Globe)
# Experimental: An agent for increasing a sugar content in a fruit (containing Sorbon T-20 as a spreader/sticker at a final concentration of 200 μL/L) diluted with water to have a potassium hydrogen carbonate concentration of 10 g/L was prepared. The mass of fruit of grape (variety: Red Globe) purchased on the market was measured. Then, the prepared agent for increasing a sugar content in a fruit was applied by spraying to the fruit of grape. Then, the fruit of grape was allowed to stand in an air-conditioned greenhouse (temperature: 25° C.), and the mass was measured over time (date of application: Apr. 27, 2011; dates of test: May 2, 2011, May 6, 2011, May 9, 2011, May 11, 2011, May 13, 2011, and May 16, 2011). In addition, as a control, the mass of untreated grape was measured on each date of measurement in the same manner.
# On the basis of the measured mass, the estimated amount (cumulative value) of transpiration and the estimated amount of transpiration per day were calculated. The results are shown in Tables 5 and 6 and FIGS. 10 and 11.
# Note that the vertical axis in FIG. 10 represents the mass (g) of the fruit of grape on each of the dates of measurement per 100 g of the fruit of grape on the date of application, and the vertical axis in FIG. 11 represents the estimated amount (g) of transpiration on each of the dates of measurement per 100 g of the fruit of grape on the date of application. The estimated amount (g) of transpiration on each of the dates of measurement per 100 g of the fruit of grape on the date of application=(the mass (g) of the fruit of grape on the date of application−the mass (g) of the fruit of grape on the date of measurement)/the mass of the fruit of grape on the date of application×100
# [2] = test system: fruit of trellised grape (variety: Pinot noir)
# Experimental: To fruit of trellised grape (variety: Pinot noir), an aqueous potassium hydrogen carbonate solution (20 g/L) was applied three times at intervals of one week. The fruit was harvested 21 days after the first application, and the sugar content, acidity, and amino acid concentration were measured. In addition, the harvested fruit was kept in an air-conditioned greenhouse (25° C.) for 10 days, and the drying state of the fruit was observed.
# Celery = details: 10 g/L aqueous solution at intervals of one week; browning index 0-5, five plants
# Source text: (§1) In general, calcium deficiency in lettuce and celery occurs from summer to fall. Heart rot symptom develops in lettuce, and change in color and blackening of new leaves develop in celery. In addition, tipburn may also occur in lettuce. A 10 g/L aqueous potassium hydrogen carbonate solution was applied at intervals of one week to lettuce and celery in which no symptom of calcium deficiency had yet developed, and whether or not the symptom became milder than that of an untreated group was observed. Five plants were subjected to each treatment, and the degree of the symptom of calcium deficiency was determined on the basis of the degree of browning of leaves at the harvest.
# (§2) 0: no browning, 0.5: browning occurred only in very small portions on the edges of leaves, 1.0: browning occurred in portions on the edges of […], 2.0: browning occurred from edges of leaves to the inside, 3.0: the degree of browning was considerable, 5.0: the browning of leaves was remarkable. Degree of occurrence=(Index 5×the number of plants in which the corresponding blowing occurred+Index 3×the number of plants in which the corresponding blowing occurred+Index 2×the number of plants in which the corresponding blowing occurred+Index 1×the number of plants in which the corresponding blowing occurred+Index 0.5×the number of plants in which the corresponding blowing occurred)/5 plants
# Lettuce (Great Lakes) = details: 10 g/L aqueous solution at intervals of one week; browning index 0-5, five plants
# Source text: as §1, §2
# Cherry (Sato Nishiki) = details: 5 g/L, three times at intervals of 7 days; 28 days after first application
# Source text: The water-soaked symptom in cherry is known to be caused by calcium deficiency. In this respect, an investigation was made as to whether or not the degree of occurrence of water-soaked symptom 28 days after the date of the first application was different between untreated cherries and cherries to which an aqueous potassium hydrogen carbonate solution (5 g/L) was applied three times at intervals of 7 days one month before the harvest time. […] The occurrence (%) of water-soaked symptom=the number of cherries in which the water-soaked symptom occurred/the number of cherries tested×100
# [3] = approximately 3 weeks later (19 days later)
smiles,measurement,setting,value
"O=C([O-])O.[K+] [Potassium hydrogen carbonate, potassium hydrogen carbonate]",Ratio (%) of decrease in body weight of fruit,Tomato,14.8%
same,Estimated amount (g) of transpiration per 100 g of fruit on date of application,[1]; 5 days later,17.4 g
same,Mass (g) of fruit per 100 g of fruit on date of application,[1]; 5 days later (applied Apr. 27),82.6 g
same,Estimated amount (g) of transpiration per 100 g of fruit on date of application,[1]; 9 days later,29.5 g
same,Mass (g) of fruit per 100 g of fruit on date of application,[1]; 9 days later,70.5 g
same,Estimated amount (g) of transpiration per 100 g of fruit on date of application,[1]; 12 days later,37.2 g
same,Mass (g) of fruit per 100 g of fruit on date of application,[1]; 12 days later,62.8 g
same,Estimated amount (g) of transpiration per 100 g of fruit on date of application,[1]; 14 days later,42.6 g
same,Mass (g) of fruit per 100 g of fruit on date of application,[1]; 14 days later,57.4 g
same,Estimated amount (g) of transpiration per 100 g of fruit on date of application,[1]; 16 days later,47.9 g
same,Mass (g) of fruit per 100 g of fruit on date of application,[1]; 16 days later,52.1 g
same,Estimated amount (g) of transpiration per 100 g of fruit on date of application,[1]; 19 days later,55.3 g
same,Mass (g) of fruit per 100 g of fruit on date of application,[1]; 19 days later,44.7 g
same,mass as % of the mass on the date of application,[1]; [3],44.7%
same,ratio of transpiration of the fruit,[1]; [3],55.3%
same,Acidity,"[2]; 20 g/L x3, at harvest",0.8
same,Amino acid concentration,"[2]; 20 g/L x3, at harvest",2800 µg/L
same,State 10 days after harvest (drying state),"[2]; 20 g/L x3, kept in greenhouse (25° C.) for 10 days",dried faster than the untreated grape
same,Sugar content (%),"[2]; 20 g/L, three times at intervals of one week, at harvest, 21 days after first application",46%
same,Degree of occurrence of calcium deficiency,Celery,0.3
same,Degree of occurrence of calcium deficiency,Lettuce (Great Lakes),0.2
same,Occurrence (%) of water-soaked symptom,Cherry (Sato Nishiki),7%
